Measurements from patent US10029000B2, “Uses of IL-12 in hematopoiesis” (University of Southern California, priority 2003, dated 2018).

Tested on: lethally irradiated mice
Assay: Radioprotection assay: survival of mice after total body lethal irradiation
Format: in vivo, mice (C57BL/6J)
Conditions: cytokine given 1 hour post lethal dose radiation; for Survives: 4-5 mice per group
Experimental: Mice received recombinant murine IL-12 (100 ng/mouse (which is about 5 ug/kg on average), intravenous injection) before (24 hours) or after (1 hour) lethal dose radiation (1000 rad). Mice in control group received equal volume of PBS buffer. Survival rate were analyzed by Kaplan-Meier method and p value was calculated using Log Rank Test.
To determine the minimum effective radioprotective dose of IL-12, different dose of IL-112 were administered to lethally irradiated animals before (24 hours before) or post (within one hour) lethal dose ionizing radiation.
IL-12 was administrated to mice at different doses 24 hours before radiation to determine if there is a dose dependent relationship between the concentration of IL-12 administration and survival from lethal irradiation.
To further explore the relationship of IL-12 hematopoietic rescue effect as it may relate to the time of administration, IL-12 was administrated to lethally irradiated animals at different time before and after the radiation. The following time points were tested: −48, −36, −24, and −12 hours before radiation, or +1, +12, +24, and +36 hours post radiation.
A study was conducted to determine if the radioprotective effect of IL-12 administration is specific and INF- ? independent. […] Also, an assessment was made to determine if there was a synergistic effect between GM-CSF and IL-12.
Mice were provided with acid water for one week before the radioprotection assay. Cytokines, diluted in phosphate buffered saline (PBS), pH 7.4, were intravenously injected into mice before or after total body lethal irradiation (TBI) at the specified times. Control group mice were injected with PBS buffer. For TBI, mice were either exposed twice to ionizing irradiation ( ? -ray from Cesium 137) at 500 rad dose with a 3 hour interval, or one time at a dose of 1000 rad in a Gammacell 40 machine from Atomic Energy of Canada LTD (Kanafa, Ontario, Canada). The ? -ray exposure rate is 1 Gy/min. […] After irradiation, mice were given water containing antibiotics. For the survival curve, the Kaplan-Meier method was used. Each experiment was repeated three or more times.

Q: Which results are given for “GM-CSF: a cytokine to stimulate G and M cell production”?
A: Survival rate (%): 0%; radioprotective effect: did not show any radioprotective effect; Survives: 0

Q: With “IL-18: cytokine that, like IL-12, can induce the release of interferon” as the molecule, how does the “Survival rate (%)” value read?
A: 0%

Q: What about the radioprotective effect of the same molecule?
A: no radioprotective effect

Q: What about the Survives of the same molecule?
A: 0

B1: IL-23: a heterodimer (p19+p40), which shares the same subunit p40 with IL-12 (protein, UniProt Q9NPF7 20-189; P29460 23-328, looked up)
Interleukin-23 subunit alpha: RAVPGGSSPAWTQCQQLSQKLCTLAWSAHPLVGHMDLREEGDEETTNDVPHIQCGDGCDPQGLRDNSQFCLQRIHQGLIFYEKLLGSDIFTGEPSLLPDSPVGQLHASLLGLSQLLQPEGHHWETQQIPSLSPSQPWQRLLLRFKILRSLQAFVAVAARVFAHGAATLSP
Interleukin-12 subunit beta: IWELKKDVYVVELDWYPDAPGEMVVLTCDTPEEDGITWTLDQSSEVLGSGKTLTIQVKEFGDAGQYTCHKGGEVLSHSLLLLHKKEDGIWSTDILKDQKEPKNKTFLRCEAKNYSGRFTCWWLTTISTDLTFSVKSSRGSSDPQGVTCGAATLSAERVRGDNKEYEYSVECQEDSACPAAEESLPIEVMVDAVHKLKYENYTSSFFIRDIIKPDPPKNLQLKPLKNSRQVEVSWEYPDTWSTPHSYFSLTFCVQVQGKSKREKKDRVFTDKTSATVICRKNASISVRAQDRYYSSSWSEWASVPCS
Q: How did the “Survival rate (%)” value turn out when B1 was run?
A: 0%

Q: What about the radioprotective effect of the same molecule?
A: no radioprotective effect

Q: And the Survives?
A: 0
